Literature values in patent US20070167418A1 (priority 2004, published 2007).
Like-named read-outs stand apart in the source and are kept apart here.

Legend:
[1] = in vivo
ED = conditions: oral
[2] = not given; remark: listed apart in the source
men with ED [3] = conditions: intraurethral suppositories
men with ED [4] = conditions: 100 mg; placebo twenty-two percent

## CN1CC(=O)N2[C@H](c3ccc4c(c3)OCO4)c3[nH]c4ccccc4c3C[C@@H]2C1=O [tadalafil]
[1]
  half-life: approximately eighteen

## COC(=O)[C@@H]1[C@H]2C[C@H]3c4[nH]c5ccccc5c4CCN3C[C@@H]2CC[C@@H]1O [Yohimbine]
ED
  efficacy in the treatment of ED: limited efficacy

## CC(C)NCC(O)COc1ccc(CC(N)=O)cc1 (stereo not shown) [atenolol]
50 mg, men informed of its sexual adverse effects
  men reporting ED after beginning treatment: 31%
Similarly treated, men blinded as to the study drug
  men reporting ED after beginning treatment: 3%

## C[C@]12CC[C@H]3[C@@H](CCC4=CC(=O)CC[C@@]43C)[C@@H]1CC[C@@H]2O [testosterone]
[2]; gels
  restoring physiological testosterone levels: high efficacy
[2]; gels or patches
  men with erythrocytosis: 5%
[2]; in vivo
  men with gynecomastia, peripheral edema, exacerbation or de novo sleep apnea, acne and mild weight gain: less than 2%
[2]; injections
  men with erythrocytosis: ≤ 50%
[2]; oral agents available in the United States
  hepatotoxicity risk: significant risk of hepatotoxity
[2]; transdermal or intramuscular preparations
  liver toxicity: does not seem to be associated
[2]; transdermal, patches
  men with local skin reactions: ≤ 40%

## CCCCC[C@H](O)/C=C/[C@H]1[C@H](O)CC(=O)[C@@H]1CCCCCCC(=O)O [alprostadil]
Men with ED [3]
  efficacy compared with penile injection: less effective

## CCCc1nn(C)c2c(=O)[nH]c(-c3cc(S(=O)(=O)N4CCN(C)CC4)ccc3OCC)nc12 [sildenafil]
[1]
  half-life: four to five
Men with ED [4]
  men achieving successful intercourse: sixty-nine

## CCCc1nc(C)c2c(=O)[nH]c(-c3cc(S(=O)(=O)N4CCN(CC)CC4)ccc3OCC)nn12 [vardenafil]
[1]
  half-life: four to five
  time of peak serum concentrations: approximately one
